Laboratory results as given in US6933131B2, “Nucleic acids encoding insect acetylcholine receptor subunits” (Bayer Aktiengesellschaft, priority 1998, dated 2005).

System: acetylcholine receptors according to the invention (recombinantly modified HEK293 cells of Example 2)
Conditions: nicotine final concentration 500 μM; HEK293 cells expressing the α subunit of an L-type Ca channel, recombinantly modified as in Example 2; FIG. 1
Method: Cells were loaded with Fura-2-acetoxymethyl ester (5-10 μM in serum-free minimal essential medium containing 1% bovine serum albumin and 5 mM calcium chloride), washed with Tyrode solution buffered with N-(2-hydroxyethyl)piperazine-N′-(2-ethanesulphonic acid) (5 mM HEPES) and alternately illuminated, under a fluorescence microscope (Nikon Diaphot) with light of 340 nm and 380 nm wavelength. A measurement point corresponds to a pair of video images at the two wavelengths (exposure time per image, 100 ms). The time interval between two measurement points is 3 s. […] The fluorescence intensity of the cells when illuminated with light of 380 nm wavelength was divided by the corresponding intensity at 340 nm, thereby giving the ratio.
HEK293 cells, which express the α subunit of an L-type Ca channel (Zong et al. 1995, Stetzer et al. 1996), were cultured in Dulbecco's modified Eagle's medium and 10% foetal calf serum at 5% CO2 and from 20° C. to 37° C. […] Individual resistant clones were analyzed as described below.
The alterations in the intracellular calcium concentration were measured using Fura-2. […] 100 μl Tyrode buffer were added to the wells of the microtitre plate and the cells were illuminated alternately, under a fluorescence microscope (Nikon Diaphot), with light of 340 nm and 380 nm wavelength. […]

Q: How did the “change in intracellular calcium (Fura-2 fluorescence ratio 380 nm/340 nm) following the addition of nicotine” value turn out when `CN1CCCC1c1cccnc1` (stereo not shown) [nicotine] was run?
A: increase in intracellular calcium
